Results taken from ChEMBL document CHEMBL1147856, “Synthesis, determination of the absolute configuration of tonkinelin, and inhibitory action with bovine heart mitochondrial complex I” (Bioorg Med Chem, 2007).

Assay: Inhibition of NADH-ubiquinone oxidoreductase activity in bovine heart submitochondrial particles
Parameters: species or system Bos taurus

IC50 [µM] | SMILES
0.58 | CCCCCCCCCCCCCCCC[C@H](O)[C@@H](O)CCCCCCCCCCCCCCC1=C[C@H](C)OC1=O
0.69 | CCCCCCCCCCCCCCCC[C@@H](O)[C@H](O)CCCCCCCCCCCCCCC1=C[C@H](C)OC1=O [TONKINELIN]

The remaining lines, values behind:

SMILES | IC50 [µM]
CCCCCCCCCC[C@@H](O)[C@@H]1CC[C@@H]([C@@H]2CC[C@@H]([C@H](O)CCCCCCCCCC(O)CC3=CC(C)OC3=O)O2)O1 (stereo not given in full) [BULLATACIN] | 0.00083
CCCCCCCCCCCC[C@H](O)[C@@H]1CC[C@H]([C@H](O)CCCCCCCCCCCCC2=C[C@H](C)OC2=O)O1 [CIS-SOLAMIN] | 0.0026
CCCCCCCCCCCC[C@H](O)[C@@H](O)CC[C@@H](O)[C@H](O)CCCCCCCCCCCCC1=C[C@H](C)OC1=O [DIHYDROXY-COHIBIN A] | 0.02
